Test results taken from US20070014723A1, “Methods and compositions for 10Beryllium complex probes” (priority 2005, published 2007).
Marks after values point to notes of the source that are not given here.

Columns and labels:
Format in all cases: cell-based, human
[1] = tested on: BAL macrophages from CBD subjects; assay: Apoptosis (nuclear fragmentation) of CBD BAL macrophages; settings: 100 μM BeSO4, 50 μg Be-ferritin adduct containing 270 picomoles of Be, or ferritin alone, mean±SEM
Method: FIG. 1. illustrates an exemplary histogram of (a) TUNEL (assay for DNA strand break) positive nuclear staining of CBD BAL macrophages after exposure to 100 μM BeSO4 and (b) nuclear fragmentation in CBD BAL macrophages exposed to Be-ferritin containing 270 picomoles of Be. (c) The percent (mean %±SEM) of CBD BAL cells (n=8) with TUNEL positive nuclei (black) or with fragmented nuclei (open) after exposure to 100 μM BeSO4. *p<0.05 versus the corresponding unstimulated control.
Cell Cultivation: Bronchoalveolar lavage (BAL) was performed as previously described. […] BAL macrophages and T cells were separated by an adherence method known in the art.

[2] = tested on: BAL cells (Be-specific BAL T cells); assay: Beryllium lymphocyte proliferation test (BeLPT), BAL cells; settings: for Peak CBD BAL cell BeLPT stimulation index, median (minimum, maximum): CBD BAL cells, n = 4, 10^-10 M Be-ferritin, 10^-4 M BeSO4, 10^-4 M Al2(SO4)3, ferritin
[3] = tested on: BAL lymphocytes from CBD and BeS subjects; assay: Apoptosis of BAL lymphocytes

Molecule	BAL macrophages with apoptotic fragmented nuclei [1]	Peak CBD BAL cell BeLPT stimulation index, median (minimum, maximum) [2]	Induction of apoptosis of BAL lymphocytes [3]	BAL BeLPT SI, median (minimum, maximum) ([2]; BeS subjects, peak SI after BeSO4 stimulation)
ferritin	< 3%	1.1 (0.8, 1.3)		
O=S(=O)([O-])[O-].[Be+2] [BeSO4, Beryllium sulfate]	50%±6%	18.5 (3.7, 124)**	did not induce	1.9 (1.2, 46)
